The text below walks through data of paper PMC6240096, “A hPSC-based platform to discover gene-environment interactions that impact human β-cell and dopamine neuron survival” (Nature Communications, 2018).

pIC50: −log10 of the molar value. Where only a bound is given, the exact number is not on record here.

The subject of one assay is CD29+CD73+ MSCs. Kind of assay: Inhibition curve on hESC-derived MSCs. In kind it is cell-based, human. As to conditions: cell survival rate, 4 days, n=3. As to the method: (§1) hESCs-derived INS^+ cells, MSCs[43], neurons, and hepatocytes[44] were derived based on the reported protocols and re-plated on 96-well plates with Accutase digestion. Cardiomyocytes (CMs) were differentiated from H9-MYH6: mCherry reporter line, based on the reported protocol. After overnight incubation, cells were treated with DMSO or different doses of hit compounds for 4 days. After fixation, the cells were stained with markers for each cell type. DAPI was used to stain cell nuclei. Plates were analyzed by ImageXpress^MICRO Automated High-Content Analysis System.
(§2) Supplementary Figure 4. Assessment of the toxic effect of propargite on different type […]
(§3) (a) Flow cytometry char acterization of CD29+ and CD73+ mesenchymal stem cells (MSCs) derived from H1 hESCs. (b-c) microscope image (b) and flow cytometry (c) characterization of cardiomyocytes expressing MYH6+ derived from a MYH6:mCherry reporter hESC line. (d-e) Immunocytochemistry characterization of MAP2+/TUJ1+ and HuC/D+/MAP2+ neurons (d) and A1AT+/ASGPR1+ hepatocytes (e) derived from H1 hESCs. All the cells were counterstained by DAPI (blue). Scale bars, 100 µm. (f) Inhibition curve of propargite on pancreatic β-like cells, MSCs, cardiomyocytes, neurons, and hepatocytes derived from hESCs, and BJ-fibroblasts (n=3). Values presented as mean±S.D. […]

The test system of assay [1] is MYH6:mCherry+ cardiomyocytes. Kind of assay: Inhibition curve on hESC-derived cardiomyocytes. In kind it is cell-based, human. As to conditions: cell survival rate, 4 days, n=3. As to the method:
as §1, §2, §3

Another assay relates to MIN6 cells. Kind of assay: Autophagy marker LC3-II western blotting. In kind it is cell-based, mouse. As to conditions: 0.8 µM or 1.6 µM propargite. From the text:
To extract intracellular protein, cells were placed on ice, washed twice with ice-cold PBS and lysed immediately with RIPA buffer (Life Technologies, 89900) supplemented with a protease inhibitor cocktail (Life Technologies, 78440). Cell lysates were then sonicated and the soluble fraction was collected after centrifugation. Protein amount was quantified by the BCA protein assay (Life Technologies, 23227). To extract extracellular HMGB1, tissue culture media were collected and concentrated using Afyon SDS-PAGE sample preparation kit (advansta, K-02101-025). 20 μg of total protein for each sample was mixed with loading buffer and incubated for 5 min at 95 °C before being loaded into NuPAGE® Novex® 4–12% […] Protein Gels (Life Technologies, NP0321BOX) for electrophoresis. Separated proteins were transferred to a PVDF membrane (Millipore, IPSN07852) after electrophoresis. […] ECL signals were developed and detected using the SuperSignal™ West Femto Maximum Sensitivity Substrate (Life Technologies, 34094) and a C-DiGit Chemiluminescent Western Blot Scanner (LI-COR). […]
cells. (b, c) Flow cytometry analysis (b) and quantification (c) of the percentage of […]
Etoposide was used as a positive control. Values presented as mean±S.D. (d, e) Immunocytochemistry analysis (d) and quantification (e) of the percentage of Active Caspase-3+ cells in 1.6 µM propargite treated MIN6 cells (n=3). […]

Another assay deals with INS-GFP+ cells. Kind of assay: RNA-seq of INS-GFP+ cells. Type of assay: cell-based, human. The settings on record: 1.6 µM propargite-treated INS-GFP+ cells. From the text:
The INS-GFP^+ cells were sorted and RNA from the sorted cells was extracted with Absolutely RNA Nanoprep kit (Agilent Technologies, 400753). The RNA quality was validated with a bioanalyzer (Agilent). The cDNA libraries were synthesized using the TruSeq RNA Sample Preparation kit (Illumina) and sequenced in single-read with the HiSeq2000/1000 sequencer (Illumina) at Weill Cornell Genomics Resources Core Facility. The reads were aligned to the human hg19 reference genome with Tophat2[48]. Gene expression data were analyzed with Cufflinks[49]. To generate heat maps displaying the differential gene expression patterns of different samples, the RPKM values were normalized per gene over all samples. The heat maps were then generated by Heatmap.2 in the R plots package. David functional annotation tool[50] was used for gene ontology analysis and Ingenuity Pathway Analysis tool was used for pathway analysis.

For orientation: pIC50 means the negative decadic logarithm of the IC50, by convention in mol/L. Read a low pIC50 as a large IC50. Consider “2-(4-tert-butylphenoxy)-cyclohexyl prop-2-yne-1-sulfonate [propargite]”, for which the pIC50 was 5.23 with CD29+CD73+ MSCs and 4.54 in assay [1]. Besides, the “relative levels of LC3-II” value in the assay on MIN6 cells was “no significant increase”. Besides, the “fold-change of upregulated DNA damage genes (DDIT3, GADD45A)” value in the assay with INS-GFP+ cells is > 3.
